Assay: xn = mol fraction of the nth substance listed
Settings: 101 kPa, Liquid; for viscosity: Concentric cylinders viscometry; for mass density: Vibrating tube method

COC(C)(C)C [2-methoxy-2-methylpropane] + CCCCO
Settings	mass density, 293.15 K [kg/m3]	mass density, 298.15 K [kg/m3]	mass density, 303.15 K [kg/m3]	mass density, 308.15 K [kg/m3]	viscosity, 293.15 K [mPa·s]	viscosity, 298.15 K [mPa·s]	viscosity, 303.15 K [mPa·s]	viscosity, 308.15 K [mPa·s]
x1 = 0.0104	809.06	805.25	801.38	797.5	2.875	2.518	2.22	1.958
x1 = 0.0243	808.13	804.31	800.43	796.52	2.741	2.41	2.126	1.882
x1 = 0.0294	807.77	803.94	800.06	796.14	2.696	2.374	2.094	1.855
x1 = 0.0396	807.09	803.24	799.35	795.41	2.618	2.298	2.032	1.8
x1 = 0.0498	806.41	802.54	798.63	794.68	2.522	2.227	1.973	1.75
x1 = 0.0601	805.74	801.84	797.91	793.95	2.439	2.156	1.908	1.697
x1 = 0.0699	805.07	801.16	797.21	793.24	2.366	2.093	1.857	1.654
x1 = 0.0804	804.38	800.44	796.49	792.5	2.296	2.028	1.809	1.612
x1 = 0.0898	803.72	799.79	795.81	791.81	2.224	1.969	1.752	1.564
x1 = 0.1006	802.95	798.99	795	790.98	2.144	1.903	1.695	1.514
x1 = 0.1507	799.54	795.53	791.47	787.38	1.85	1.656	1.489	1.334
x1 = 0.1993	796.26	792.17	788.04	783.88	1.6	1.437	1.294	1.169
x1 = 0.2516	792.7	788.55	784.35	780.11	1.382	1.25	1.132	1.029
x1 = 0.3022	789.27	785.01	780.75	776.43	1.216	1.103	0.9992	0.9132
x1 = 0.3515	785.87	781.6	777.25	772.86	1.077	0.9815	0.893	0.8189
x1 = 0.4031	782.33	777.98	773.56	769.1	0.9523	0.8743	0.797	0.7323
x1 = 0.4497	779.15	774.73	770.24	765.7	0.8598	0.7902	0.7267	0.6743
x1 = 0.4999	775.69	771.23	766.66	762.05	0.7724	0.7125	0.6568	0.6081
x1 = 0.5485	772.39	767.84	763.2	758.52	0.6999	0.6476	0.5981	0.5512
x1 = 0.5953	769.2	764.57	759.86	755.11	0.6397	0.5937	0.5512	0.5073
x1 = 0.6445	765.82	761.14	756.35	751.52	0.585	0.5452	0.506	0.4692
x1 = 0.6999	762	757.24	752.37	747.46	0.53	0.4937	0.4595	0.4236
x1 = 0.7466	758.77	753.92	748.98	744	0.4912	0.4586	0.4275	0.395
x1 = 0.8067	754.66	749.65	744.63	739.55	0.4474	0.4167	0.3876	0.3578
x1 = 0.8404	752.26	747.22	742.14	737.01	0.4251	0.3961	0.3679	0.3465
x1 = 0.8695	750.22	745.15	740.03	734.85	0.408	0.3799	0.3544	0.3327
x1 = 0.8983	748.09	743	737.86	732.64	0.3889	0.3651	0.3371	0.3165
x1 = 0.9092	747.32	742.21	737.05	731.8	0.3832	0.3591	0.3333	0.3137
x1 = 0.9188	746.62	741.51	736.33	731.09	0.3778	0.3547	0.3301	0.3112
x1 = 0.9299	745.83	740.69	735.5	730.24	0.3717	0.3493	0.3249	0.305
x1 = 0.9398	745.11	739.96	734.74	729.47	0.3683	0.3491	0.329	0.3048
x1 = 0.9492	744.42	739.25	734.03	728.76	0.3654	0.3479	0.3225	0.3006
x1 = 0.9607	743.59	738.39	733.15	727.86	0.358	0.3391	0.3169	0.2958
x1 = 0.9697	742.97	737.75	732.49	727.18	0.356	0.331	0.3107	0.2998
x1 = 0.9796	742.24	737.01	731.74	726.41	0.3489	0.3267	0.3076	0.2964
x1 = 0.9902	741.47	736.22	730.94	725.59	0.3456	0.3214	0.2976	0.2892

Reference: the NIST ThermoML archive (doi:10.1016/j.jct.2011.02.018)
